From patent EP0810207A1, “Bis-ortho-substituted benzoylguanidines, process for their preparation, their use as medicament or diagnostic agent and medicaments containing them” (HOECHST AKTIENGESELLSCHAFT, priority 1996, dated 1997)
pIC50: −log10 of the molar value. Where a name gives a salt, the structure may show the parent alone. Blank lines part the entries; values can stand above or below the compound they belong to.

Target: T1, Na^+/H^+-Exchangers von Kaninchenerythrocyten (Oryctolagus cuniculus, UniProt P23791)
T1 construct: den Na^+-Influx in die Erythrocyten via Na^+/H^+-Austausch flammenphotometrisch bestimmen zu können; from tissue; host or cells: Erythrocytes from ear-artery blood of cholesterol-fed New Zealand White rabbits
T1 sequence (P23791 whole entry): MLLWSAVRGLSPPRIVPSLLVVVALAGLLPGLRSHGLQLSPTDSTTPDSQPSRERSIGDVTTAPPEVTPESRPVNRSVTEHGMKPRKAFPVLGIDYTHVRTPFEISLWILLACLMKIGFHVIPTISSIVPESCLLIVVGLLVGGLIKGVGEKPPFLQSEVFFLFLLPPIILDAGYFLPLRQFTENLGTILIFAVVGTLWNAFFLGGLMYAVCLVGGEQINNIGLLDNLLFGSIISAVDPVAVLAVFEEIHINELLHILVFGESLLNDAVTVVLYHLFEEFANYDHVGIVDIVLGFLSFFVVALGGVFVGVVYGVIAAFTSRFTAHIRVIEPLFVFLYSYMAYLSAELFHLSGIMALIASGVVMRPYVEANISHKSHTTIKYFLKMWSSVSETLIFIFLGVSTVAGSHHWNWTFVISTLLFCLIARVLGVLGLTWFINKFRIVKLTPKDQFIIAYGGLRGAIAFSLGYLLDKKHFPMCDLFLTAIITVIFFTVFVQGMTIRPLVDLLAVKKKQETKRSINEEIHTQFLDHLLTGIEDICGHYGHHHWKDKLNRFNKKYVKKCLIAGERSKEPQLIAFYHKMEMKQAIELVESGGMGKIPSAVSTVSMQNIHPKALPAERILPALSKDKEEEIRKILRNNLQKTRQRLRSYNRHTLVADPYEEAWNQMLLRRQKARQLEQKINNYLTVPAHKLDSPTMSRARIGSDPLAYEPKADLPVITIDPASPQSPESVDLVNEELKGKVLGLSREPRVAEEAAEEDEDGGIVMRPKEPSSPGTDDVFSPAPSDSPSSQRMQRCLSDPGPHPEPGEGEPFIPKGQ
Assay: Inhibition of the Na+/H+ exchanger of rabbit erythrocytes (amiloride-sensitive sodium influx, flame photometry)
Type: cell-based, Kaninchen
Details: hyperosmolar salt-sucrose medium, pH 7,4, 37°C, read-out: IC50 Inhibition des Na^+/H^+-Exchangers
From the text: Inhibition des Na^+/H^+-Exchangers von Kaninchenerythrocyten Weiße Neuseeland-Kaninchen (Ivanovas) erhielten eine Standard-Diät mit 2% Cholesterin für sechs Wochen, um den Na^+/H^+-Austausch zu aktivieren und so den Na^+-Influx in die Erythrocyten via Na^+/H^+-Austausch flammenphotometrisch bestimmen zu können. Das Blut wurde den Ohrarterien entnommen und durch 25 IE Kalium-Heparin ungerinnbar gemacht. Ein Teil jeder Probe wurde zur Doppelbestimmung des Hämatokrits durch Zentrifugieren benutzt. Aliquots von jeweils 100 µl dienten zur Messung des Na^+-Ausgangsgehalts der Erythrocyten.
Um den Amilorid-sensitiven Natrium-Influx zu bestimmen, wurden 100 µl jeder Blutprobe in jeweils 5 ml eines hyperosmolaren Salz-Sucrose-Mediums (mmol/l: 140 NaCl, 3 KCl, 150 Sucrose, 0,1 Ouabain, 20 Tris-hydroxymethylaminomethan) bei pH 7,4 und 37°C inkubiert. Die Erythrocyten wurden danach dreimal mit eiskalter MgCl2-Ouabain-Lösung (mmol/l: 112 MgCl2, 0,1 Ouabain) gewaschen und in 2,0 ml destilliertem Wasser hämolysiert. Der intrazelluläre Natriumgehalt wurde flammenphotometrisch bestimmt.
Der Na^+-Nettoinflux wurde aus der Differenz zwischen Natrium-Ausgangswerten und dem Natriumgehalt der Erythrocyten nach Inkubation errechnet. Der Amilorid-hemmbare Natrium-Influx ergab sich aus der Differenz des Natriumgehalts der Erythrocyten nach Inkubation mit und ohne Amilorid 3 x 10^-4 mol/l. Auf diese Weise wurde auch bei den erfindungsgemäßen Verbindungen verfahren.

SMILES: COc1ccc(Cl)c(OC)c1C(=O)N=C(N)N [Beispiel 2, 3-Chlor-2,6-dimethoxy-benzoylguanidin-hydrochlorid]
pIC50: 5.07

SMILES: NC(N)=NC(=O)c1c(F)cccc1F [Beispiel 4, 2,6-Difluor-benzoylguanidin-hydrochlorid]
pIC50: < 5.00

SMILES: NC(N)=NC(=O)c1c(F)c(F)c(O)c(F)c1F [Beispiel 3, 4-Hydroxy-2,3,5,6-tetrafluor-benzoylguanidin-hydrochlorid]
pIC50: 6.52

SMILES: N=C(N)NC(=O)c1c(Cl)cccc1Cl [Beispiel 1, 2,6-Dichlor-benzoylguanidin-hydrochlorid]
pIC50: 5.00

The remaining lines, values ahead:

pIC50: < 5.00
SMILES: COc1ccc(C(F)(F)F)c(OC)c1C(=O)N=C(N)N [Beispiel 6, 3-Trifluormethyl-2,6-dimethoxy-benzoylguanidin-hydrochlorid]

pIC50: 5.00
SMILES: NC(N)=NC(=O)c1c(F)cccc1C(F)(F)F [Beispiel 5, 2-Fluor-6-trifluormethyl-benzoylguanidin-hydrochlorid]
